From paper PMC11396129, “Oxindole–benzothiazole hybrids as CDK2 inhibitors and anticancer agents: design, synthesis and biological evaluation” (BMC Chemistry, 2024)

How the values were obtained:
Assay type in all cases: cell-based, human
COLO 205 = experiment: NCI 60 panel growth inhibition (SRB), colon cancer; conditions: COLO 205, 10 μM
Protocol: (§1) Screening of cytotoxic activity against a panel of sixty human tumor cell lines The selected compounds by NCI were evaluated for their anticancer activity in a two- stage process. […] Then, the output from the single dose screen is reported as a mean graph. […] Assay protocol. […] For a typical screening experiment, cells are inoculated into 96 well microtiter plates in 100 µL at plating densities ranging from 5000 to 40,000 cells/well depending on the doubling time of individual cell lines. […] After 24 h, two plates of each cell line are fixed in situ with TCA, to represent a measurement of the cell population for each cell line at the time of drug addition (Tz). The experimental drugs are solubilized in dimethyl sulfoxide at 400-fold the desired final maximum test concentration and stored frozen prior to use. At the time of drug addition, an aliquot of frozen concentrate is thawed and diluted to twice the desired final maximum test concentration with complete medium containing 50 µg/mL gentamicin. Additional four, 10-fold or ½ log serial dilutions are made to provide a total of five drug concentrations plus control. […] For adherent cells, the assay is terminated by the addition of cold TCA. […] The supernatant is discarded, and the plates are washed five times with tap water and air dried. […] Using the seven absorbance measurements [time zero, (Tz), control growth, (C), and test growth in the presence of drug at the five concentration levels (Ti)], the percentage growth is calculated at each of the drug concentrations levels. Percentage growth inhibition is calculated as: [(Ti Tz)/(C–Tz)] x 100 for concentrations for which Ti>/=Tz and [(Ti-Tz)/Tz] x 100 for concentrations for which Ti < Tz. Three dose response parameters are calculated for each experimental agent. […] The drug concentration resulting in total growth inhibition (TGI) is calculated from Ti = Tz. […] Values are calculated for each of these three parameters if the level of activity is reached; however, if the effect is not reached or is exceeded, the value for that parameter is expressed as greater or less than the maximum or minimum concentration tested.

HCC-2998 = experiment: NCI 60 panel growth inhibition (SRB), colon cancer; conditions: HCC-2998, 10 μM
Protocol: as §1

HCT-116 = experiment: NCI 60 panel growth inhibition (SRB), colon cancer; conditions: HCT-116, 10 μM
Protocol: as §1

HCT-15 = experiment: NCI 60 panel growth inhibition (SRB), colon cancer; conditions: HCT-15, 10 μM
Protocol: as §1

KM12 = experiment: NCI 60 panel growth inhibition (SRB), colon cancer; conditions: KM12, 10 μM
Protocol: as §1

SW-620 = experiment: NCI 60 panel growth inhibition (SRB), colon cancer; conditions: SW-620, 10 μM
Protocol: as §1

SF-268 = experiment: NCI 60 panel growth inhibition (SRB), CNS cancer; conditions: SF-268, 10 μM
Protocol: as §1

SF-295 = experiment: NCI 60 panel growth inhibition (SRB), CNS cancer; conditions: SF-295, 10 μM
Protocol: as §1

SF-539 = experiment: NCI 60 panel growth inhibition (SRB), CNS cancer; conditions: SF-539, 10 μM
Protocol: as §1

SNB-19 = experiment: NCI 60 panel growth inhibition (SRB), CNS cancer; conditions: SNB-19, 10 μM
Protocol: as §1

SNB-75 = experiment: NCI 60 panel growth inhibition (SRB), CNS cancer; conditions: SNB-75, 10 μM
Protocol: as §1

LOX IMVI = experiment: NCI 60 panel growth inhibition (SRB), melanoma; conditions: 10 μM
Protocol: as §1

M14 = experiment: NCI 60 panel growth inhibition (SRB), melanoma; conditions: M14, 10 μM
Protocol: as §1

MALME-3M = experiment: NCI 60 panel growth inhibition (SRB), melanoma; conditions: 10 μM
Protocol: as §1

MDA-MB-435 = experiment: NCI 60 panel growth inhibition (SRB), melanoma; conditions: MDA-MB-435, 10 μM
Protocol: as §1

SK-MEL-28 = experiment: NCI 60 panel growth inhibition (SRB), melanoma; conditions: SK-MEL-28, 10 μM
Protocol: as §1

SK-MEL-5 = experiment: NCI 60 panel growth inhibition (SRB), melanoma; conditions: SK-MEL-5, 10 μM
Protocol: as §1

UACC-257 = experiment: NCI 60 panel growth inhibition (SRB), melanoma; conditions: UACC-257, 10 μM
Protocol: as §1

UACC-62 = experiment: NCI 60 panel growth inhibition (SRB), melanoma; conditions: UACC-62, 10 μM
Protocol: as §1

786-0 = experiment: NCI 60 panel growth inhibition (SRB), renal cancer; conditions: 786-0, 10 μM
Protocol: as §1

A498 = experiment: NCI 60 panel growth inhibition (SRB), renal cancer; conditions: A498, 10 μM
Protocol: as §1

ACHN = experiment: NCI 60 panel growth inhibition (SRB), renal cancer; conditions: 10 μM
Protocol: as §1

CAKI-1 = experiment: NCI 60 panel growth inhibition (SRB), renal cancer; conditions: CAKI-1, 10 μM
Protocol: as §1

SN12C = experiment: NCI 60 panel growth inhibition (SRB), renal cancer; conditions: 10 μM
Protocol: as §1

TK-10 = experiment: NCI 60 panel growth inhibition (SRB), renal cancer; conditions: TK-10, 10 μM
Protocol: as §1

UO-31 = experiment: NCI 60 panel growth inhibition (SRB), renal cancer; conditions: UO-31, 10 μM
Protocol: as §1

BT-549 = experiment: NCI 60 panel growth inhibition (SRB), breast cancer; conditions: BT-549, 10 μM
Protocol: as §1

HS 578T = experiment: as above; conditions: 10 μM
Protocol: as §1

MCF7 = experiment: as above; conditions: MCF7, 10 μM
Protocol: as §1

MDA-MB-231/ATCC = experiment: as above; conditions: 10 μM
Protocol: as §1

MDA-MB-468 = experiment: as above; conditions: MDA-MB-468, 10 μM
Protocol: as §1

T-47D = experiment: as above; conditions: 10 μM
Protocol: as §1

RXF 393 = experiment: NCI 60 panel growth inhibition (SRB), renal cancer; conditions: RXF 393, 10 μM
Protocol: as §1

[1] = system: NCI 60 cancer cell line panel; experiment: NCI 60 panel growth inhibition (SRB), whole panel; conditions: mean over NCI 60 panel, 10 μM
Protocol: as §1

SMILES	GI% (HCC-2998)	GI% (HCT-116)	GI% (HCT-15)	GI% (KM12)	GI% (SW-620)	GI% (SF-268) [%]	GI% (SF-295)	GI% (SF-539) [%]	GI% (SNB-19)	GI% (SNB-75)	GI% (LOX IMVI)	GI% (M14)	GI% (MALME-3M)	GI% (MDA-MB-435)	GI% (SK-MEL-28)	GI% (SK-MEL-5) [%]	GI% (UACC-257)	GI% (UACC-62) [%]	GI% (786-0)	GI% (A498)	further results
COc1ccc(-c2nc3ccccc3s2)cc1OCC(=O)NN=C1C(=O)Nc2ccc(C)cc21 [Compound 9n, 2-(5-(Benzo[d]thiazol-2-yl)-2-methoxyphenoxy)-N′-(5-methyl-2-oxoindolin-3-ylidene)acetohydrazide]	– (GI% < 5%)	– (GI% < 5%)	9.62%	– (GI% < 5%)	6.33%	5.27	– (GI% < 5%)	11.49	– (GI% < 5%)	– (GI% < 5%)	– (GI% < 5%)	– (GI% < 5%)	18.46%	– (GI% < 5%)	6.91%	7.31	– (GI% < 5%)	13.88	44.99%	– (GI% < 5%)	GI% (COLO 205): – (GI% < 5%); GI% (ACHN): 8.57%; GI% (CAKI-1): 12.63%; GI% (SN12C): 5.76%; GI% (TK-10): – (GI% < 5%); GI% (UO-31): – (GI% < 5%); GI% (BT-549): – (GI% < 5%); GI% (HS 578T): 5.72%; GI% (MCF7): 25.33%; GI% (MDA-MB-231/ATCC): 12.37%; GI% (MDA-MB-468): – (GI% < 5%); GI% (T-47D): 13.50%
O=C(COc1ccccc1-c1nc2ccccc2s1)NN=C1C(=O)Nc2ccccc21 [Compound 9a, 2-(2-(Benzo[d]thiazol-2-yl)phenoxy)-N′-(2-oxoindolin-3-ylidene)acetohydrazide]	– (GI% < 5%)	– (GI% < 5%)	8.99%	6.23%	– (GI% < 5%)	6.56	14.46%	5.56	6.15%	– (GI% < 5%)	– (GI% < 5%)	– (GI% < 5%)	– (GI% < 5%)	– (GI% < 5%)	– (GI% < 5%)	13.43	6.77%	13.82	– (GI% < 5%)	– (GI% < 5%)	GI% (COLO 205): – (GI% < 5%); GI% (ACHN): – (GI% < 5%); GI% (CAKI-1): 22.46%; GI% (RXF 393): 5.86%; GI% (SN12C): 7.64%; GI% (TK-10): – (GI% < 5%); GI% (UO-31): 26.54%; GI% (BT-549): – (GI% < 5%); GI% (HS 578T): 5.85%; GI% (MCF7): 25.11%; GI% (MDA-MB-231/ATCC): – (GI% < 5%); GI% (MDA-MB-468): – (GI% < 5%); GI% (T-47D): 12.02%
COc1ccc(-c2nc3ccccc3s2)cc1OCC(=O)NN=C1C(=O)Nc2ccc([N+](=O)[O-])cc21 [Compound 9p, 2-(5-(Benzo[d]thiazol-2-yl)-2-methoxyphenoxy)-N′-(5-nitro-2-oxoindolin-3-ylidene)acetohydrazide]	– (GI% < 5%)	47.25%	– (GI% < 5%)	– (GI% < 5%)	– (GI% < 5%)	53.94	89.39%	65.68	86.59%	120.44%	13.12%	– (GI% < 5%)	8.36%	– (GI% < 5%)	– (GI% < 5%)	5.61	– (GI% < 5%)	19.19	87.35%	20.06%	GI% (ACHN): 76.97%; GI% (CAKI-1): 45.22%; GI% (RXF 393): 99.84%; GI% (SN12C): 37.68%; GI% (TK-10): 96.63%; GI% (UO-31): 19.08%; GI% (BT-549): 54.51%; GI% (HS 578T): 96.22%; GI% (MCF7): 17.21%; GI% (MDA-MB-231/ATCC): 49.20%; GI% (MDA-MB-468): 17.86%; Mean GI% [1]: 30.34%
